According to paper PMC6134108, “Nystatin-like Pseudonocardia polyene B1, a novel disaccharide-containing antifungal heptaene antibiotic” (Scientific Reports, 2018):
Converted amounts (≈) assume the structure as drawn. Like-named read-outs stand apart in the source and are kept apart here.

How the values were obtained:
[1] = system: ergosterol-containing membranes; assay: Preliminary SPR experiments; type: binding; conditions: ergosterol- vs cholesterol-containing liposomes, unpublished data
ICR mice [2] = assay: 7-day repeated intravenous dose toxicity; type: in vivo; conditions: repeated iv 1.5mg/kg
Experimental: (§1) All in vivo mouse toxicity studies were conducted according to Testing Guidelines for Safety Evaluation of Drugs[32] and the Organisation for Economic Co-operation and Development (OECD) Guideline[33]. Male and female ICR mice were used 7 weeks old for the toxicity test. […]

[3] = 7-day repeated intravenous dose toxicity; type: in vivo, mice; conditions: both sexes, ICR, mouse, in vivo; mice, 7-day repeated intravenous doses; read-out: MTD, maximal tolerated dose
Experimental: as §1

ICR mice [4] = assay: Single intravenous dose acute toxicity; type: in vivo
Experimental: (§2) All in vivo mouse toxicity studies were conducted according to Testing Guidelines for Safety Evaluation of Drugs[32] and the Organisation for Economic Co-operation and Development (OECD) Guideline[33]. Male and female ICR mice were used 7 weeks old for the toxicity test. […] The single doses were 1, 2.5, and 5 mg per kg body weight.

[5] = Single intravenous dose acute toxicity; type: in vivo, mice; conditions: ICR, mouse, in vivo, single intravenous administration
Experimental: as §2

[6] = system: Candida albicans KCTC7965; assay: MIC assay (CLSI M27-A3 microbroth); type: cell-based; conditions: Candida albicans, KCTC7965, read-out: Antifungal activity (MIC)
Experimental: (§3) For the minimum inhibitory concentration (MIC) assay, strains for testing were grown on YPD agar for 24 hours, and subcultured to YPD broth medium. Whole strains were incubated for 18 hours at 35 °C by shaking incubator. Grown organisms were diluted with fresh RPMI 1640 medium to appropriate concentration, 5 × 10^4 CFU/ml. Cultures were inoculated to 96-well plates containing antifungal medium. All compounds were dissolved using Dimethyl Sulfoxide (DMSO) and diluted broth media. Fungal diluted solution and antifungal medium were mixed at 1:1 ratio so total 200 ul mixed medium was made. Whole experiment plates were incubated for 24 hours at 37 °C. […] The MICs were calculated in duplicate using the Clinical and Laboratory Standards Institute M27-A3 microbroth methodology. Hemolysis experiments and the 3-(4,5-dimethylthiazol-2-yl)-5-(3-carboxymethoxyphenyl)-2-(4-sulfophenyl)-2H-tetrazolium (MTS) cell proliferation colorimetric assay were performed following known procedures[12],[27],[29].

C. albicans SL28 = assay: MIC assay (CLSI M27-A3 microbroth); type: cell-based; conditions: Candida albicans, SL28, read-out: Antifungal activity (MIC)
Experimental: as §3

[7] = Microsomal (metabolic) stability; type: in vitro ADME; conditions: human liver microsomes 1.0 mg/ml
Experimental: A metabolic stability experiment was conducted to calculate the rate of disappearance of polyene macrolides following in vitro incubation with human microsomes. Working solutions of polyene macrolides were prepared from a 10 mM stock solution in dimethyl sulfoxide (DMSO) diluted to a final concentration of 1 µM in 0.1 M potassium phosphate buffer (pH 7.4). Each incubation mixture included 1 mg/mL human microsomal protein (BD Gentest^TM, Franklin Lakes, NJ, USA) and 1 mM NADPH. The reactions were terminated at 0, 15, 45, and 80 min. The reaction mixtures were vigorously vortexed and then analyzed using the API2000 LC-MS/MS) system (Applied Biosystems, USA) using an Xterra MS C18 (3.5-µm, 2.1 × 50 mm, Waters).

[8] = rats, oral administration
in vivo = conditions: mouse, 0.5 mg/kg
Description: Supplement 41598_2018_31801_MOESM1_ESM.docx, table 4: Table S4.

horse blood cells = type: cell-based; conditions: 90% hemolysis against horse blood cells; ± percentage standard deviation
Experimental: as §3

CC(=O)NC1C(OC2C(C)OC(OC3C=CC=CC=CC=CC=CC=CC=CC(C)C(O)C(C)C(C)OC(=O)CC(O)CC(O)CC(O)CCC(O)C(O)CC4(O)CC(O)C(C(=O)O)C(C3)O4)C(O)C2N)OC(CO)C(O)C1O (centres unmarked) [NPP B1, Nystatin-like Pseudonocardia polyene B1]
binding preference [1]: binds preferentially to ergosterol-containing liposomes | Deaths on day after start of treatment (ICR mice [2]; female, day 0): 0 | Deaths on day after start of treatment (ICR mice [2]; female, day 1): 0 | Deaths on day after start of treatment (ICR mice [2]; female, day 2): 0 | Deaths on day after start of treatment (ICR mice [2]; female, day 3): 0 | Deaths on day after start of treatment (ICR mice [2]; female, day 4): 0 | Deaths on day after start of treatment (ICR mice [2]; female, day 5): 0 | Deaths on day after start of treatment (ICR mice [2]; female, day 6): 0 | Deaths on day after start of treatment (ICR mice [2]; female, day 7): 0 | Deaths on day after start of treatment (ICR mice [2]; male, day 0): 0 | Deaths on day after start of treatment (ICR mice [2]; male, day 1): 0 | Deaths on day after start of treatment (ICR mice [2]; male, day 2): 0 | Deaths on day after start of treatment (ICR mice [2]; male, day 3): 0 | Deaths on day after start of treatment (ICR mice [2]; male, day 4): 0 | Deaths on day after start of treatment (ICR mice [2]; male, day 5): 0 | Deaths on day after start of treatment (ICR mice [2]; male, day 6): 0 | MTD at 7 days [3]: > 1.5 mg/kg | Deaths on day after start of treatment (ICR mice [4]; female, single iv 1mg/kg, day 0): 0 | Deaths on day after start of treatment (ICR mice [4]; female, single iv 1mg/kg, day 1): 0 | Deaths on day after start of treatment (ICR mice [4]; female, single iv 1mg/kg, day 2): 0 | Deaths on day after start of treatment (ICR mice [4]; female, single iv 1mg/kg, day 3): 0 | Deaths on day after start of treatment (ICR mice [4]; female, single iv 1mg/kg, day 4): 0 | Deaths on day after start of treatment (ICR mice [4]; female, single iv 1mg/kg, day 5): 0 | Deaths on day after start of treatment (ICR mice [4]; female, single iv 1mg/kg, day 6): 0 | Deaths on day after start of treatment (ICR mice [4]; female, single iv 1mg/kg, day 7): 0 | Deaths on day after start of treatment (ICR mice [4]; female, single iv 2.5mg/kg, day 0): 1 | Deaths on day after start of treatment (ICR mice [4]; female, single iv 2.5mg/kg, day 1): 0 | Deaths on day after start of treatment (ICR mice [4]; female, single iv 2.5mg/kg, day 2): 1 | Deaths on day after start of treatment (ICR mice [4]; female, single iv 2.5mg/kg, day 3): 0 | Deaths on day after start of treatment (ICR mice [4]; female, single iv 2.5mg/kg, day 4): 0 | Deaths on day after start of treatment (ICR mice [4]; female, single iv 2.5mg/kg, day 5): 0 | Deaths on day after start of treatment (ICR mice [4]; female, single iv 2.5mg/kg, day 6): 0 | Deaths on day after start of treatment (ICR mice [4]; female, single iv 2.5mg/kg, day 7): 0 | Deaths on day after start of treatment (ICR mice [4]; female, single iv 5mg/kg, day 0): 3 | Deaths on day after start of treatment (ICR mice [4]; female, single iv 5mg/kg, day 1): 2 | Deaths on day after start of treatment (ICR mice [4]; female, single iv 5mg/kg, day 2): 0 | Deaths on day after start of treatment (ICR mice [4]; female, single iv 5mg/kg, day 3): 0 | Deaths on day after start of treatment (ICR mice [4]; female, single iv 5mg/kg, day 4): 0 | Deaths on day after start of treatment (ICR mice [4]; female, single iv 5mg/kg, day 5): 0 | Deaths on day after start of treatment (ICR mice [4]; female, single iv 5mg/kg, day 6): 0 | Deaths on day after start of treatment (ICR mice [4]; female, single iv 5mg/kg, day 7): 0 | Deaths on day after start of treatment (ICR mice [4]; male, single iv 1mg/kg, day 0): 0 | Deaths on day after start of treatment (ICR mice [4]; male, single iv 1mg/kg, day 1): 0 | Deaths on day after start of treatment (ICR mice [4]; male, single iv 1mg/kg, day 2): 0 | Deaths on day after start of treatment (ICR mice [4]; male, single iv 1mg/kg, day 3): 0 | Deaths on day after start of treatment (ICR mice [4]; male, single iv 1mg/kg, day 4): 0 | Deaths on day after start of treatment (ICR mice [4]; male, single iv 1mg/kg, day 5): 0 | Deaths on day after start of treatment (ICR mice [4]; male, single iv 1mg/kg, day 6): 0 | Deaths on day after start of treatment (ICR mice [4]; male, single iv 1mg/kg, day 7): 0 | Deaths on day after start of treatment (ICR mice [4]; male, single iv 2.5mg/kg, day 0): 1 | Deaths on day after start of treatment (ICR mice [4]; male, single iv 2.5mg/kg, day 1): 0 | Deaths on day after start of treatment (ICR mice [4]; male, single iv 2.5mg/kg, day 2): 1 | Deaths on day after start of treatment (ICR mice [4]; male, single iv 2.5mg/kg, day 3): 0 | Deaths on day after start of treatment (ICR mice [4]; male, single iv 2.5mg/kg, day 4): 0 | Deaths on day after start of treatment (ICR mice [4]; male, single iv 2.5mg/kg, day 5): 0 | Deaths on day after start of treatment (ICR mice [4]; male, single iv 2.5mg/kg, day 6): 0 | Deaths on day after start of treatment (ICR mice [4]; male, single iv 2.5mg/kg, day 7): 0 | Deaths on day after start of treatment (ICR mice [4]; male, single iv 5mg/kg, day 0): 4 | Deaths on day after start of treatment (ICR mice [4]; male, single iv 5mg/kg, day 1): 0 | Deaths on day after start of treatment (ICR mice [4]; male, single iv 5mg/kg, day 2): 1 | Deaths on day after start of treatment (ICR mice [4]; male, single iv 5mg/kg, day 3): 0 | Deaths on day after start of treatment (ICR mice [4]; male, single iv 5mg/kg, day 4): 0 | Deaths on day after start of treatment (ICR mice [4]; male, single iv 5mg/kg, day 5): 0 | Deaths on day after start of treatment (ICR mice [4]; male, single iv 5mg/kg, day 6): 0 | Deaths on day after start of treatment (ICR mice [4]; male, single iv 5mg/kg, day 7): 0 | LD50 at 7 days ([5]; female mice, read-out: median lethal dose (LD50)): 2.95 mg/kg | LD50 at 7 days ([5]; male mice, read-out: median lethal dose (LD50)): 2.95 mg/kg | LD50 at 7 days ([5]; both sexes, mice, read-out: LD50, median lethal dose (dose causing 50% mortality)): 2.95 mg/kg | MIC [6]: 2 µg/mL (≈ 1.77 µM) | MIC (C. albicans SL28): 4 µg/mL (≈ 3.55 µM) | Clearance class [7]: Moderate | k [7]: 0.019 | half-life at 1 µM ([7]; pH 7.4): 0.608 h | microsomal CLint at 1 µM ([7]; pH 7.4): 19000 µL/min/mg | remaining at 80 min, 1 µM ([7]; pH 7.4, 1 µM, 80-min incubation): 28.2% | detection in the plasma following oral administration [8]: not detected | AUC(0-inf) (in vivo; read-out: AUC0-inf): 15100 ng·h/mL | AUC(0-t) (in vivo; read-out: AUC0-t): 5890 ng·h/mL | clearance (in vivo; read-out: CL (converted)): 0.5 mL/min/kg | MRT inf (in vivo; read-out: MRTinf): 17 h | Vd (in vivo; read-out: Vss): 0.6 L/kg | half-life (in vivo; read-out: t1/2 (converted)): 12.3 h | Hemolytic activity (MHC, minimum hemolytic concentration) (horse blood cells): 13.60 ± 0.19 µg/mL
